Residues, ends and D or L forms follow the SMILES beside them. *: point of attachment. Cbz = O=C(OCc1ccccc1)*
Key:
proteasome = conditions: cited from earlier work
[1] = test system: human type B synoviocytes infected with rAAV(mIL-10); experiment: Mouse IL-10 transgene expression (ELISA of supernatants) in human type B synoviocytes infected with rAAV(mIL-10); format: cell-based
Experimental: Synoviocytes were infected with rAAV on day 0. On day 1, cells were exposed to the indicated amounts of zLLL for 24 hours. Supernatants were harvested on days 3 and 7 and assayed by ELISA for mouse IL-10.
Synoviocytes were infected with rAAV on day 0. At various times (indicted by the arrows), some cells were exposed to 40 μM of zLLL for 24 hours (A) or to recombinant adenovirus lacking a transgene (B). Supernatants were harvested and assayed by ELISA for mouse IL-10.
Kwon, C. Mah, and A. Srivastava. 2000. Impaired intracellular trafficking of adeno-associated virus type 2 vectors limits efficient transduction of murine fibroblasts. J Virol 74:992-996) to determine whether human synoviocytes could be made to express a transgene following AAV-mediated gene transfer. […] This is inconsistent with the proposed mechanism of action of zLLL, that of increasing viral trafficking to the nucleus, as transgene expression should be stable once the viral genome reaches the nucleus and sufficient second strand synthesis occurs.
(§1) To further explore this finding, synovial cells were re-exposed to zLLL following the loss of transgene expression. […] In each case, expression peaked 2-3 days following exposure to zLLL and then dropped off. We were able to re-induce transgene expression as far out as 25 days after infection. We have not yet looked at further time points, but we can already conclude that the transgene persists in the synoviocytes for an extended period of time and that its expression can be regulated by zLLL.
This is inconsistent with the proposed mechanism of action of zLLL, that of increasing viral trafficking to the nucleus, as transgene expression should be stable once the viral genome reaches the nucleus and sufficient second strand synthesis occurs.
as §1, with “reinduce” for “re-induce”

[2] = test system: human type B synoviocyte cultures infected with rAAV(mIL-4); experiment: Real-time PCR of transgene mRNA in human type B synoviocytes infected with rAAV(mIL-4); format: cell-based; conditions: 40 μM zLLL for 24 hours
Experimental: Human type B synoviocyte cultures were infected with rAAV(mIL-4). Ten days later, some cells were exposed to 40 μM of zLLL for 24 hours. Cells were harvested and RNA was extracted, reverse transcribed, and subjected to real-time PCR using a LightCycler™ System (Roche Molecular Biochemicals, Indianapolis, Ind.) with the FastStart DNA Master SYBR Green I reaction mix and gene specific primers. LIGHTCYCLER Quantification Software v5.32 was used to compare amplification in the samples during the log-linear phase. Data are normalized to the AAV(mIL-4) samples, which are given a value of 1. The ZLLL group was not infected with AAV (IL-4).
Synoviocytes transduced with AAV(mIL-4) were exposed to zLLL and RNA was extracted and subjected to real-time PCR. zLLL induced a 250-fold increase in mIL-4 mRNA with no increase in the constituitively-expressed gene, GAPDH (FIG. 4).

[3] = test system: RA synovium implanted into SCID mice; experiment: Luciferase expression in RA synovium implanted into SCID mice, injected with AAV(Luc), after in vivo zLLL; conditions: zLLL into the synovial tissue or intraperitoneally two weeks after AAV(Luc); tissue removed 48 hours later
Experimental: RA synovium was implanted into SCID mice. Two weeks later, synovial tissues were injected with 6.8×10^10 particles of AAV(Luc). Two weeks following rAAV administration, zLLL was administered in a 100 μl volume either directly into the synovial tissue or intraperitoneally. Synovial tissues were removed 48 hours later, homogenized, and assayed for luciferase content.
The optimal in vivo dose and route of administration is unclear from this preliminary study and will be addressed in the proposed experiments.

other cell types = conditions: cited from earlier work
mouse lungs = conditions: in vivo; cited from earlier work

| Compound | specificity for the proteasome / other proteases inhibited (proteasome) | transgene expression on re-exposure after loss of expression ([1]; 40 μM zLLL for 24 hours at various times) | expression of a mouse IL-10 transgene ([1]; 3 days following infection with rAAV, zLLL for 24 hours on day 1, dose dependent) | expression of mouse IL-10 transgene by day 7 ([1]; day 7 after infection, single 24 h zLLL exposure on day 1) | latest time after infection at which transgene expression was re-induced ([1]; days after infection) [days] | time of peak expression following exposure ([1]; following each exposure to zLLL) [days] | change in constitutively expressed gene GAPDH mRNA [2] | increase in mIL-4 mRNA ([2]; ten days after infection, normalized to AAV(mIL-4) samples) [fold] | in vivo transgene (luciferase) expression [3] | nuclear accumulation of rAAV particles and the rAAV genome (other cell types) | rAAV-mediated transduction in mouse lungs (mouse lungs) |
| --- | --- | --- | --- | --- | --- | --- | --- | --- | --- | --- | --- |
| CC(=O)N[C@@H](CSC(=O)[C@]1([C@@H](O)C(C)C)NC(=O)[C@H](C)[C@@H]1O)C(=O)O [Lactacystin] | high specificity for the proteasome |  |  |  |  |  |  |  |  |  |  |
| CC(C)C[C@@H](C=O)NC(=O)[C@H](CC(C)C)NC(=O)[C@H](CC(C)C)NC(=O)OCc1ccccc1 [zLLL, Carbobenzoxyl-L-leucyl-L-leucyl-L-leucinal] (Cbz-Leu-Leu-Leu-aldehyde) | can also inhibit certain lysosomal cysteine proteases and the calpains | could be repeatedly induced | dramatically enhanced | expression was lost | 25 | 2 to 3 | no increase | 250 | dramatically enhanced | increase nuclear accumulation | enhance rAAV-mediated transduction |
